Laboratory results reported in the supplement of paper PMC10307832.

Key:
Assay in all cases: relative viability (nuclei count vs DMSO), 5 days (fraction); higher = more cells survive
Vemurafenib + Vorinostat = compound: CCCS(=O)(=O)Nc1ccc(F)c(C(=O)c2c[nH]c3ncc(-c4ccc(Cl)cc4)cc23)c1F [Vemurafenib] + O=C(CCCCCCC(=O)Nc1ccccc1)NO [Vorinostat] (partner 1 µM)
How it was run: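 Each reported value is a median over duplicate plates. It expresses relative viability: treated-well nuclei count divided by vehicle-well nuclei count. Lung cancer cell lines in 1536-well plates were dosed by pin tool a day after seeding, alone with one drug or with a fixed anchor-drug dose plus five library-drug doses (not always all listed) in √10 steps, and nuclei were counted after 5 days.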

Alpelisib = compound: Cc1nc(NC(=O)N2CCC[C@H]2C(N)=O)sc1-c1ccnc(C(C)(C)C(F)(F)F)c1 [Alpelisib]
How it was run: (§1)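 Five library-drug doses, separated by factors of √10, were pinned into 1536-well plates holding lung cancer cell lines after an overnight stay at 37 °C. Cells were fixed, permeabilised and Hoechst-stained in one step after 5 days without medium change, then imaged at 4×. Viability compares treated-well with vehicle-well nuclei, counted in MetaXpress, as a median across plates. Passing plates had control CV below 25% and at least one doubling.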

Vemurafenib = compound: CCCS(=O)(=O)Nc1ccc(F)c(C(=O)c2c[nH]c3ncc(-c4ccc(Cl)cc4)cc23)c1F [Vemurafenib]
How it was run: as §1

OSI-027 = compound: COc1cccc2cc(-c3nc([C@H]4CC[C@H](C(=O)O)CC4)n4ncnc(N)c34)[nH]c12 [OSI-027]
How it was run: as §1

UMC-11
relative viability (Vemurafenib + Vorinostat; first compound 0.03162 µM): 0.383 | relative viability (Vemurafenib + Vorinostat; first compound 0.1 µM): 0.439 | relative viability (Vemurafenib + Vorinostat; first compound 0.3162 µM): 0.576 | relative viability (Vemurafenib + Vorinostat; first compound 1 µM): 0.37 | relative viability (Alpelisib; 0.04 µM): 0.937 | relative viability (Alpelisib; 0.1265 µM): 0.954 | relative viability (Alpelisib; 0.4 µM): 1.01 | relative viability (Alpelisib; 1.265 µM): 0.956 | relative viability (Alpelisib; 2 µM, anchor plate): 1 | relative viability (Alpelisib; 4 µM): 0.826 | relative viability (Vemurafenib; 0.03162 µM): 0.923 | relative viability (Vemurafenib; 0.1 µM): 1.02 | relative viability (Vemurafenib; 0.3162 µM): 0.876 | relative viability (Vemurafenib; 1 µM): 0.777 | relative viability (OSI-027; 0.01 µM): 0.913 | relative viability (OSI-027; 0.03162 µM): 0.916 | relative viability (OSI-027; 0.1 µM): 0.808 | relative viability (OSI-027; 0.3162 µM): 0.704 | relative viability (OSI-027; 0.5 µM, anchor plate): 0.49 | relative viability (OSI-027; 1 µM): 0.561
